In the METLIN SMRT retention time set (Domingo-Almenara et al. 2019):

Experiment: gradient 5% acetonitrile 3 min, to 50% in 2 min, to 85% in 15 min, held 3 min, 100 µL/min
Conditions: column: Zorbax Extend-C18 2.1 x 50 mm; eluents: water / acetonitrile, 0.1% formic acid
How it was run: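 Standards, all pure, were combined into mixtures of ~100 molecules and run at 100 μL/min on a Zorbax Extend-C18 column (2.1 × 50 mm, 1.8 μm) with water and acetonitrile, each containing 0.1% formic acid. A coupled quadrupole time-of-flight mass spectrometer operated in positive and negative ionization mode. Retention time values come from computationally picked adduct peaks, each inspected manually.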

| Structure (SMILES) | RP-LC retention time [s] |
| --- | --- |
| COCCCNC(=O)COc1ccccc1-c1nnc(-c2ccccc2)o1 | 900 |
| Cc1ccc(NC(=O)C2CCCN2S(=O)(=O)c2cc3c(cc2C)NC(=O)C(C)O3)c(Cl)c1 (stereo not given) | 914 |
| Cc1cc(C(=O)NCCCN2CCOCC2)c2cc(Br)ccc2n1 | 583 |
| O=C(NCc1ccc(Br)cc1)c1ccc(-c2cncnc2)nc1 | 765 |
| CCN(c1nc(N)c(C(=O)N=C(N)N)nc1Cl)C(C)C | 779 |
| CCOC(=O)c1c(C)[nH]c(CCC(=O)NCCN(C)C)c1C | 591 |
| Cc1ccc(-c2[nH]ncc2CN2C[C@@H](CO)[C@H](c3ccncc3)C2)cc1 | 604 |
| CCn1c(=O)c(C)nc2cc(-c3noc(/C=C/c4ccc(OC)cc4)n3)ccc21 | 1140 |
| O=C(CN1CCN(Cc2ccc(F)cc2Cl)C1=O)NCC1CCCCC1 | 927 |
| COc1cc(OC)c(NC(=O)COc2cc(C)nc(N3CCCCCC3)n2)cc1Cl | 659 |
| Cc1cc2c(cc1S(=O)(=O)N1CCCC1C(=O)NC1CCCCCCC1)OC(C)C(=O)N2 (stereo not given) | 857 |
| CCc1nc2cc(N3CCCC(C(=O)NCC4CCCO4)C3)cnc2nc1CC (stereo not given) | 694 |
| COc1c2c(c(OC)c3c1c(=O)c1ccccc1n3C)OCO2 | 767 |
| Cc1ccccc1-c1nc2cnccn2c1NCCC(=O)NCc1ccccc1F | 660 |
| COc1ccc2[nH]c(=O)c(CCC(=O)NCCc3ccccn3)cc2c1 | 576 |
| COCCN1C(=O)CCc2cc(NS(=O)(=O)c3cc(C)ccc3C)ccc21 | 1060 |
| CN(C)C[C@@H]1CN(S(C)(=O)=O)C[C@H]1NC(=O)c1cccn1C | 573 |
| Cc1ccc(-n2nc(CO)c(C(=O)NC3CCCC3)n2)cc1C | 1090 |
| Cc1ccc(C2CC(=O)N(c3ccc(C(C)C)cc3)C(=O)C2)cc1 | 1120 |

| Structure (SMILES) | RP-LC retention time [s] |
| --- | --- |
| CC(C)CCN1CCC(N2CCN(S(=O)(=O)Cc3ccccc3)CC2)C1=O (stereo not given) | 646 |
| Cc1ccc2c(c1)N(C(=O)Cn1cnc(-c3nc(-c4ccccc4)cs3)c1)CCO2 | 954 |
| CCNC(=O)C1CCN(S(=O)(=O)c2cc(-c3noc(C)n3)cs2)CC1 | 713 |
| CCc1ccc(NS(=O)(=O)c2c(C)sc(C)c2-c2cc(C)[nH]n2)cc1 | 1130 |
| Cc1ccc(Cl)cc1NC(=O)N1CCC(n2cnnc2C2CC2)C1 (stereo not given) | 653 |
| O=C(NCC1CCCO1)C(=O)NCC1(O)CCOCC1 (stereo not given) | 540 |
| CCN(CC)C(=O)N1CCO[C@@H](COc2ccccn2)[C@@H]1c1ccccc1 | 898 |
| Cc1cc(=O)n(CC(=O)Nc2cc(F)cc(F)c2)c(N2CCOCC2)n1 | 724 |
| O=C(NC1CCCCCC1)C1CCCN(c2ccc(=O)n(-c3cccc(Cl)c3)n2)C1 (stereo not given) | 966 |
| COc1ccc(S(=O)(=O)Nc2ccc(-c3cn4ccc(C)nc4n3)cc2)cc1OC | 627 |
| CCN(CC)c1ccc(NS(=O)(=O)c2cc(-c3nc(C)cs3)sc2C)c(C)c1 | 750 |
| COc1cccc(-c2nc(-c3cccc(-c4ccnn4C)c3)no2)c1 | 1120 |
| O=C(Cn1c(C(F)(F)F)nc2cc3c(cc21)OCCO3)NCc1ccc2c(c1)OCCCO2 | 818 |
| Cc1cc(-c2nnc(C3CC3)o2)c(C)n1CC(=O)NCc1ccc(F)cc1Cl | 840 |
| COCCNS(=O)(=O)c1cccc(-c2nc(-c3ccccc3)no2)c1 | 972 |
| C=C(CN(C)C)C(=O)c1ccccc1Cl | 594 |
| CCCn1nc(C)cc1CN(C)C(=O)c1cn2ccccc2n1 | 591 |
| CCC(=O)N1CCCN(C2=NS(=O)(=O)C(c3ccccc3)=C2C)CC1 | 694 |
| CC(C)C(=O)NCC(c1ccccc1Cl)c1c[nH]c2ccccc12 (stereo not given) | 929 |

| Structure (SMILES) | RP-LC retention time [s] |
| --- | --- |
| Cc1cccc(C(=O)NCC2CCCN(S(=O)(=O)c3cc(C)c(C)cc3C)C2)c1 (stereo not given) | 1060 |
| Cc1nn2c(N3CCN(c4ccccn4)CC3)cc(C(C)(C)C)nc2c1-c1ccc(F)cc1 | 1090 |
| Cc1oc(C(C)C)nc1C(=O)NCc1ccncc1 | 590 |
| O=C(CC1CCN(C(=O)NCCc2ccccc2)CC1)N1CCCCC1 | 759 |
| Cc1csc(-c2cc(S(=O)(=O)N3CCN(Cc4ccc5c(c4)OCO5)CC3)c(C)s2)n1 | 740 |
| COc1ccc(OCc2noc(CNC(=O)Nc3cc(OC)c(OC)c(OC)c3)n2)cc1 | 743 |
| CCN(CC)CCCNC(=O)c1ccc2c(c1)N(C)C(=O)C1CCCCN21 (stereo not given) | 608 |
| O=C(Cn1cnc2nc(N3CCCC(C(=O)NC4CC4)C3)sc2c1=O)Nc1ccc(F)cc1F (stereo not given) | 673 |
| COc1ccc(-c2noc(Cn3ncn4nc(-c5ccc(F)cc5)cc4c3=O)n2)cc1OC | 1000 |
| COc1ccc2nc3oc(C(=O)NCCc4ccsc4)cc3cc2c1 | 901 |
| CCc1ccc(S(=O)(=O)N2C[C@@H](F)C[C@H]2C(=O)N2CCCCC2)cc1 | 866 |
| O=C(CS(=O)(=O)c1ccc(Cl)cc1)Nc1nc(-c2ccc3c(c2)OCO3)cs1 | 959 |
| CCOc1cc2ncc(C#N)c(Nc3ccc(F)c(Cl)c3)c2cc1NC(=O)/C=C/CN(C)C | 727 |
| CCOC(=O)CC(=O)CSc1ccc2nnc(-c3cccs3)n2n1 | 671 |
| Cc1nn(C)c(C)c1CCN(C)C(=O)C1CCCCC(=O)N1C (stereo not given) | 582 |
| CC(C)NC(=O)N1CCC(OC2CCN(Cc3ccccc3)CC2)CC1 | 564 |
| O=c1c2cnc3nc(-c4ccccc4Cl)nn3c2ccn1CCc1c[nH]c2ccccc12 | 950 |
| CSc1ccc(-c2noc(CN3C(=O)COc4ccc(C(C)(C)C)cc43)n2)cc1 | 1300 |
| COc1cccc(Oc2nccnc2N2CCC(C(=O)NCCC(C)C)CC2)c1 | 861 |

Continued, values first:

| RP-LC retention time [s] | Structure (SMILES) |
| --- | --- |
| 1180 | CCCOc1nc2ccccc2nc1N1CCCC(C(=O)NC2CCCC2)C1 (stereo not given) |
| 1050 | CSc1cccc(NC(=O)Cn2c(-c3ccccc3)nc(C)cc2=O)c1 |
| 873 | COc1cc(OC)c(NC(=O)NC2CCN(c3ccc(C)cc3)C2=O)cc1Cl (stereo not given) |
| 790 | CN(C)c1ccc(C(=O)NC2CCN(c3cc(-c4ccc(Cl)cc4)[nH]n3)C2)cc1 (stereo not given) |
| 666 | CCN1CCN(C(=O)Nc2ccc(Br)cc2)c2cccnc21 |
| 841 | CC1CCC(NC(=O)C2CCN(c3cnn(Cc4ccccc4)c(=O)c3)CC2)CC1 (stereo not given) |
| 873 | Cc1cc2c(c(=O)n(-c3ccccc3)c(=O)n2CC(=O)Nc2ccc(Cl)cc2F)n1C |
| 616 | O=C(c1cc2cc(Br)ccc2oc1=O)N1CCN(c2ccccn2)CC1 |
| 805 | O=C(Cc1csc(NC(=O)NC2CCCCC2)n1)NCCc1ccc(Cl)cc1 |
| 602 | O=C(CN1CCN(c2ncccn2)CC1)N1c2ccccc2Sc2ccccc21 |
| 700 | O=c1ccc(N2CCC(NS(=O)(=O)c3cccnc3)CC2)nn1CC1CC1 |
| 728 | COc1cccc(N2CCN(c3ccnc(SCC(=O)Nc4ccc5c(c4)OCO5)n3)CC2)c1 |
| 607 | CN1CCCC1c1nc(C2CN(C(=O)CCc3nc4ccccc4s3)C2)no1 (stereo not given) |
| 747 | Cc1nn(-c2ccc(Cl)cc2)c(C)c1S(=O)(=O)N1CCN(c2ccccn2)CC1 |
| 1040 | O=C(Cn1cccc1-c1nc(-c2ccc(Cl)cc2)cs1)N1CCOCC1 |
| 603 | O=C(Cc1ccc(Cl)cc1)N1CCN(c2ccc(Nc3ccccn3)nn2)CC1 |
| 665 | Cc1ccnc(N2CCC(C(=O)NCCCN3CCCc4ccccc43)CC2)n1 |

| RP-LC retention time [s] | Structure (SMILES) |
| --- | --- |
| 969 | Cc1ccc(S(=O)(=O)N2CCCC2C(=O)Nc2ccc(C)cc2C)cc1 (stereo not given) |
| 833 | CC(=O)Nc1ccc(C(=O)N2CCN(c3ccc(F)cc3)CC2)c(N2CCCCC2)c1 |
| 604 | COC(=O)c1ccc(NC(=O)CN2CCc3[nH]c4c(C)ccc(F)c4c(=O)c3C2)cc1 |
| 874 | CCCCNC(=O)Cn1c(=O)cc(-c2nc(C3CC3)no2)c2ccccc21 |
| 697 | Cc1cc(C)cc(NC(=O)NC2CCN(c3ccccc3)C2=O)c1 (stereo not given) |
| 977 | Cn1c(=O)c(N2CCC(NC(=O)Nc3ccc(Br)cc3)CC2)nc2ccccc21 |
| 905 | CCOC(=O)N1CCc2c(sc(NC(=O)C3CC3)c2-c2nc3ccccc3s2)C1 |
| 696 | CCn1cc(CC(=O)Nc2ccc(OC)cc2)c2cccnc21 |
| 774 | Cc1noc(-c2nn(C)c3c2CN(C(=O)c2ccc(Br)cc2)CC3)n1 |
| 915 | CCOc1ccccc1NC(=O)N1C[C@@H]2CN(S(=O)(=O)c3ccc(C)cc3)C[C@H](C1)O2 |
| 931 | CCOc1ccccc1NC(=O)C1CCN(S(=O)(=O)c2ccc3c(c2)sc(=O)n3C)CC1 |
| 877 | O=C(Cc1csc2nc(-c3ccccc3)cn12)NC1CCCCCCC1 |
| 994 | CCCn1c(=O)c(N2CCN(C(=O)C3CCC3)CC2)nc2ccccc21 |
| 612 | CCCCC(=O)Nc1ccc(-c2cn3ccc(C)nc3n2)cc1 |
| 981 | COCCn1cc2c3c(cccc31)CN(C(=O)Nc1cccc(Cl)c1)CC2 |
| 911 | COc1ccc(-n2cc(C(=O)Oc3cccnc3)c3ccccc3c2=O)cc1 |
